Test results reported in patent US6355799B1, “Substituted benzene compounds, process for their preparation, and herbicidal and defoliant compositions containing them” (ISK Americas Incorporated, priority 1997, dated 2002).

What was measured:
Type in all cases: in vivo
[1] = test system: field corn (Zea mays L., var. Dekalb 535, CORN); assay: Post-emerge test, crop safety; conditions: post-emerge, 14 days after application, rating scale 0-100
In short: (§1)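 Compounds in acetone were track-sprayed at 187 l/ha, 15–1000 g ai/ha, onto sandy loam pots. Pre-emerge seeds were sown one day before spraying, with surface watering afterwards. Post-emerge plants were at the 2–3 leaf stage and sprayed with 0.25% v/v non-ionic surfactant. Injury was rated 0–100 at 14 days.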

[2] = test system: upland rice (Oryza sp., var. Tebonnet, RICE); assay: Post-emerge test, crop safety; conditions: post-emerge, 14 days after application, rating scale 0-100
In short: as §1

[3] = test system: redroot pigweed (Amaranthus retroflexus, AMARE); assay: Post-emerge test, greenhouse herbicide activity screening; conditions: post-emerge, 14 days after application, rating scale 0-100
In short: (§2)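 Compounds in acetone were track-sprayed at 15-1000 g ai/ha (187 l/ha) on sandy loam pots: pre-emerge one day after seeding, post-emerge at 2-3 leaf stage with 0.25% v/v non-ionic surfactant. Phytotoxicity was rated 14 days later on a 0 (no damage) to 100 (complete death) scale.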

[4] = test system: sicklepod (Cassia obtusifolia, CASOB); assay: as above; conditions: post-emerge, 14 days after application, rating scale 0-100
In short: as §2

[5] = test system: large crabgrass (Digitaria sanguinalis, DIGSA); assay: as above; conditions: post-emerge, 14 days after application, rating scale 0-100
In short: as §2

[6] = test system: velvetleaf (Abutilon theophrasti, ABUTH); assay: as above; conditions: post-emerge, 14 days after application, rating scale 0-100
In short: as §2

[7] = test system: johnsongrass (Sorghum halepense, SORHA); assay: as above; conditions: post-emerge, 14 days after application, rating scale 0-100
In short: as §2

[8] = test system: green foxtail (Setaria viridis, SETVI); assay: as above; conditions: post-emerge, 14 days after application, rating scale 0-100
In short: as §2

[9] = test system: lambsquarters (Chenopodium album, CHEAL); assay: as above; conditions: post-emerge, 14 days after application, rating scale 0-100
In short: as §2

[10] = test system: ivyleaf morningglory (Ipomoea hederacea, IPOHE); assay: as above; conditions: post-emerge, 14 days after application, rating scale 0-100
In short: as §2

[11] = test system: barnyardgrass (Echinochloa crus-galli, ECHCG); assay: as above; conditions: post-emerge, 14 days after application, rating scale 0-100
In short: as §2

[12] = test system: field corn (Zea mays L., var. Dekalb 535, CORN); assay: Pre-emerge test, crop safety; conditions: rated 14 days after application, 0 = no damage, 100 = complete death
In short: (§3)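 Applied at 15–1000 g ai/ha from acetone in 187 l/ha spray volume. Post-emergence applications included 0.25% v/v non-ionic surfactant and reached plants sown 8–21 days before. Pre-emergence applications were incorporated by surface watering. Efficacy or crop damage was rated on a 0–100 scale after 14 days.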

[13] = test system: upland rice (Oryza sp., var. Tebonnet, RICE); assay: Pre-emerge test, crop safety; conditions: rated 14 days after application, 0 = no damage, 100 = complete death
In short: as §3

[14] = test system: redroot pigweed (Amaranthus retroflexus, AMARE); assay: Pre-emerge test, greenhouse herbicide activity screening; conditions: rated 14 days after application, 0 = no damage, 100 = complete death
In short: as §1

[15] = test system: sicklepod (Cassia obtusifolia, CASOB); assay: as above; conditions: rated 14 days after application, 0 = no damage, 100 = complete death
In short: as §1

[16] = test system: large crabgrass (Digitaria sanguinalis, DIGSA); assay: as above; conditions: rated 14 days after application, 0 = no damage, 100 = complete death
In short: as §1

[17] = test system: velvetleaf (Abutilon theophrasti, ABUTH); assay: as above; conditions: rated 14 days after application, 0 = no damage, 100 = complete death
In short: as §1

[18] = test system: johnsongrass (Sorghum halepense, SORHA); assay: as above; conditions: rated 14 days after application, 0 = no damage, 100 = complete death
In short: as §1

[19] = test system: green foxtail (Setaria viridis, SETVI); assay: as above; conditions: rated 14 days after application, 0 = no damage, 100 = complete death
In short: as §1

[20] = test system: lambsquarters (Chenopodium album, CHEAL); assay: as above; conditions: rated 14 days after application, 0 = no damage, 100 = complete death
In short: as §1

[21] = test system: ivyleaf morningglory (Ipomoea hederacea, IPOHE); assay: as above; conditions: rated 14 days after application, 0 = no damage, 100 = complete death
In short: as §1

[22] = test system: barnyardgrass (Echinochloa crus-galli, ECHCG); assay: as above; conditions: rated 14 days after application, 0 = no damage, 100 = complete death
In short: as §1

With COc1c(Cl)cc(F)c(-n2c(=O)cc(C(F)(F)F)n(C)c2=O)c1N(C(=O)COc1ccccc1)C(=O)COc1ccccc1 [2-120] the “phytotoxicity rating CORN” value ([1]; 63 g ai/ha) was 50, the “phytotoxicity rating CORN” value ([1]; 250 g ai/ha) was 70 and the “phytotoxicity rating RICE” value ([2]; 63 g ai/ha) was 50. The “phytotoxicity rating RICE” value ([2]; 250 g ai/ha) was 90, the “phytotoxicity rating AMARE” value ([3]; 63 g ai/ha) was 90 and the “phytotoxicity rating AMARE” value ([3]; 250 g ai/ha) was 100. For the same molecule, the “phytotoxicity rating CASOB” value ([4]; 63 g ai/ha) was 40, the “phytotoxicity rating CASOB” value ([4]; 250 g ai/ha) was 30 and the “phytotoxicity rating DIGSA” value ([5]; 63 g ai/ha) was 10. For the same molecule, the “phytotoxicity rating DIGSA” value ([5]; 250 g ai/ha) was 60, the “phytotoxicity rating ABUTH” value ([6]; 63 g ai/ha) was 100 and the “phytotoxicity rating ABUTH” value ([6]; 250 g ai/ha) was 100. The “phytotoxicity rating SORHA” value ([7]; 63 g ai/ha) was 40, the “phytotoxicity rating SORHA” value ([7]; 250 g ai/ha) was 50 and the “phytotoxicity rating SETVI” value ([8]; 63 g ai/ha) was 20. For the same molecule, the “phytotoxicity rating SETVI” value ([8]; 250 g ai/ha) was 60, the “phytotoxicity rating CHEAL” value ([9]; 63 g ai/ha) was 80 and the “phytotoxicity rating CHEAL” value ([9]; 250 g ai/ha) was 80. For the same molecule, the “phytotoxicity rating IPOHE” value ([10]; 63 g ai/ha) was 100, the “phytotoxicity rating IPOHE” value ([10]; 250 g ai/ha) was 100 and the “phytotoxicity rating ECHCG” value ([11]; 63 g ai/ha) was 40. The “phytotoxicity rating ECHCG” value ([11]; 250 g ai/ha) was 30, the “Pre-emerge phytotoxicity rating (0-100), crop damage, CORN” value ([12]; 63 g ai/ha) was 0 and the “Pre-emerge phytotoxicity rating (0-100), crop damage, CORN” value ([12]; 250 g ai/ha) was 90. For the same molecule, the “Pre-emerge phytotoxicity rating (0-100), crop damage, RICE” value ([13]; 63 g ai/ha) was 80, the “Pre-emerge phytotoxicity rating (0-100), crop damage, RICE” value ([13]; 250 g ai/ha) was 95 and the “Pre-emerge Herbicidal Activity, phytotoxicity rating (0-100), AMARE” value ([14]; 63 g ai/ha) was 90. The “Pre-emerge Herbicidal Activity, phytotoxicity rating (0-100), AMARE” value ([14]; 250 g ai/ha) was 100, the “Pre-emerge Herbicidal Activity, phytotoxicity rating (0-100), CASOB” value ([15]; 63 g ai/ha) was 40 and the “Pre-emerge Herbicidal Activity, phytotoxicity rating (0-100), CASOB” value ([15]; 250 g ai/ha) was 70. For the same molecule, the “Pre-emerge Herbicidal Activity, phytotoxicity rating (0-100), DIGSA” value ([16]; 63 g ai/ha) was 80, the “Pre-emerge Herbicidal Activity, phytotoxicity rating (0-100), DIGSA” value ([16]; 250 g ai/ha) was 100 and the “Pre-emerge Herbicidal Activity, phytotoxicity rating (0-100), ABUTH” value ([17]; 63 g ai/ha) was 100. The “Pre-emerge Herbicidal Activity, phytotoxicity rating (0-100), ABUTH” value ([17]; 250 g ai/ha) was 100, the “Pre-emerge Herbicidal Activity, phytotoxicity rating (0-100), SORHA” value ([18]; 63 g ai/ha) was 50 and the “Pre-emerge Herbicidal Activity, phytotoxicity rating (0-100), SORHA” value ([18]; 250 g ai/ha) was 95. For the same molecule, the “Pre-emerge Herbicidal Activity, phytotoxicity rating (0-100), SETVI” value ([19]; 63 g ai/ha) was 70, the “Pre-emerge Herbicidal Activity, phytotoxicity rating (0-100), SETVI” value ([19]; 250 g ai/ha) was 100 and the “Pre-emerge Herbicidal Activity, phytotoxicity rating (0-100), CHEAL” value ([20]; 63 g ai/ha) was 100. For the same molecule, the “Pre-emerge Herbicidal Activity, phytotoxicity rating (0-100), CHEAL” value ([20]; 250 g ai/ha) was 100, the “Pre-emerge Herbicidal Activity, phytotoxicity rating (0-100), IPOHE” value ([21]; 63 g ai/ha) was 50 and the “Pre-emerge Herbicidal Activity, phytotoxicity rating (0-100), IPOHE” value ([21]; 250 g ai/ha) was 80. The “Pre-emerge Herbicidal Activity, phytotoxicity rating (0-100), ECHCG” value ([22]; 63 g ai/ha) was 60 and the “Pre-emerge Herbicidal Activity, phytotoxicity rating (0-100), ECHCG” value ([22]; 250 g ai/ha) was 90.
